Legend:
[1] = Particle size distribution by laser diffraction light scattering; type: physicochemical; conditions: 5% menadione, HPMC formulation, roller milled; 40° C.
Method: Particle size distribution can be analyzed using laser diffraction light scattering, e.g., with a Horiba LA-950 V2. Generic assumptions are made in setting conditions and the refractive index value. The distributions are volume based. Sample density is adjusted to a generic range of percent transmission on the blue LED light source. A small sample cell (filled with water) can be used rather than the flow through cell, to minimize sample quantity.
Particle size distribution was analyzed using laser diffraction light scattering with a Horiba LA-950 V2. Generic assumptions were made in setting conditions and the refractive index value. The distributions were volume based. Sample density was adjusted to a generic range of percent transmission on the blue LED light source. A small sample cell (filled with water) was used rather than the flow through cell, to minimize sample quantity.

EGFR [2] = molecular target: T1, EGFR (Homo sapiens, UniProt P00533); experiment: Mechanism by which menadione enhances EGFR activity (hTCEpi immunoblot); type: cell-based; design: Kinetics of EGFR degradation: dose or concentration left out as unconfirmed
T1 construct: endogenous in cells; host or cells: hTCEpi (immortalized corneal epithelial cells)
Method: […] Cells were then incubated with 8.0 nM (50 ng/ml) EGF for 0-3 hours. The cells were lysed and the lysates were resolved by SDS-PAGE, and immunoblotted for phosphorylated EGFR (pY1068), total EGFR, or α-tubulin.

[3] = Ocular pharmacokinetics of formulations, Example 20-5; type: in vivo, Dutch Belted rabbits
Method: The study design (Table 19-1) consisted of forty-seven (47) Dutch Belted rabbits, each receiving a 30 μL bilateral topical ocular dose. Various suspension formulations of the present application were evaluated and compared against a cyclodextrin-based eye drops solution (Control Group 1, Table 19-1). Formula II or Compound-I was used in the test suspensions as well as the Eye Drops solution.
(§1) Ocular sampling occurred one hour following the first daily dose on Day 5 for all groups. Whole blood samples using K2EDTA as an anticoagulant were collected from all animals on Day 5, 1 hour post dose. The whole blood was placed on ice until samples were spun in a centrifuge to separate the plasma. Aqueous humor, conjunctiva, cornea, central retina, peripheral retina, central choroid, and peripheral choroid samples were collected following necropsy. Samples were then frozen at −70° C. or lower. For all Groups 1-15, plasma, central retina, central choroid, and cornea samples were assayed. For Group 5 only, samples were analyzed for Vitamin K3.
An analytical method for the analysis of Vitamin K3 was determined in plasma, central retina, central choroid, and cornea samples from Group 5 animals. A calibration curve prepared in control vitreous humor was used to determine the concentration of Vitamin K3. Internal standard (IS) responses were inconsistent for the central choroid and plasma samples. Thus, positive plasma results were likely due to the reduced IS response.

EGFR [4] = molecular target: T1, EGFR; experiment: EGFR tyrosine phosphorylation assay in hTCEpi cells with a second active agent; type: cell-based; conditions: vitamin K 50 μM, nicotinic acid 10 μM or nicotinamide 10 μM, 4 hours pre-treatment, EGF 50 ng/ml
Method: An EGFR tyrosine assay in corneal epithelial cells is run to determine if Vitamin K or nicotinic acid/nicotinamide can overcome inhibition of EGFR and if there is an increase in EGFR activity. […] Cells are harvested cells and immunoblotted for determination of phosphorylated EGFR (tyrosine 1068 and tyrosine 1045) and total EGFR concentration which was used to determine receptor activity (IC50).
The cells were then incubated with EGF (50 ng/ml) for 15 minutes. Cells were harvested and cell lysates were immunoblotted for determination of phosphorylated EGFR (tyrosine 1068 and tyrosine 1045) and total EGFR concentration.

[5] = Ocular pharmacokinetics of formulations, Example 20-3; type: in vivo, Dutch Belted rabbits; conditions: 1.0 μM Vit K3 suspension, 30 μL/eye/dose QD for 4 Days, 1 hr post dose on Day 5; for Vitamin K3 concentration in Cornea: LLOQ = 2.91 μM; for Vitamin K3 concentration in Central Choroid: LLOQ = 43.6 μM
Method: The study design (Table 17-1) consisted of thirty-nine (39) Dutch Belted rabbits, each receiving a 30 μL bilateral topical ocular dose. Various suspension formulations of the present application were evaluated and compared against two control formulations: a) a cyclodextrin-based eye drops solution (Control Group 13, Table 17-1), and b) a pilot suspension formulation used in previous rabbit pharmacokinetic studies, (Group 10, Table 17-1). Formula II or Compound-I was used in the test suspensions, whereas the Eye Drops solution formulation is derived with the Compound-I.
as §1, with “1-13,” for “1-15,”, “assayed.” for “assayed. For Group 5 only, samples were analyzed for Vitamin K3.”
Additionally, Vitamin K3 concentrations were determined in plasma, central retina, central choroid, and cornea samples for animals from Groups 8 and 9. A calibration curve prepared in control matrix was used to determine the concentration of Vitamin K3.

hTCEpi cells = experiment: Cell migration/proliferation (in vitro wound healing) in hTCEpi cells: compound and second active agent; type: cell-based; conditions: 0.3 μM menadione
Method: Determination of cell migration/proliferation in corneal epithelial cells is run to determine cell migration/proliferation in the presence of varying concentrations of a compound of Formula I or II, vitamin K, or nicotinic acid/nicotinamide. Cells are plated with silicone plugs. The cells are then serum starved and pre-treated with varying concentrations of a compound of Formula I or II or a control. The plugs are removed and the cells are treated with 1) EGF, 2) EGF and vitamin K or 3) EGF and nicotinic acid/nicotinamide. Cell migration is quantified from micrographs.
hTCEpi cells were plated with silicone plugs. The cells were then serum starved and pre-treated with varying concentrations of vitamin K3 analog, menadione, for 4 hours and supplemented with the varying concentrations of a compound of Formula I or II for 30 minutes. The plugs were removed. The cells were photographed and then treated with various concentrations of vitamin K, EGF, and/or a compound of Formula I or II. The cells were again photographed and cell migration was quantified from the micrographs. Additional controls run included no compound of Formula I or II and no EGF. All experiments were repeated three times.

corneas of C57/Bl mice = experiment: Corneal wound healing in vivo with a second active agent; conditions: 0.3 μM menadione, 48 hours pre-treatment
Method: Determination of the effects of a compound of Formula I or II and/or a second active agent on corneal wound healing was determined in mice. Corneas of C57/Bl mice are wounded and then pre-treated with a compound of Formula I or II, followed by addition of EGF, vitamin K, or nicotinic acid/nicotinamide. Wound size and closure are monitored.
Corneas of 8 week old C57/Bl mice were pre-treated with topical administration of vehicle, 0.3 μM menadione, 10 μM of a compound of Formula I or II, 0.3 μM menadione and 10 μM of a compound of Formula I or II 48 hours before the corneas were wounded (1.5 mm superficial epithelial wound). Wound size was monitored by fluorescein staining and fluorescent photography. Wound closure was monitored over the course of 40 hours.

[6] = Group 8: Formula II 4 mg/mL, HPMC
[7] = Group 9: Formula II 4 mg/mL, Pluronic

T1 sequence (P00533 25-1210): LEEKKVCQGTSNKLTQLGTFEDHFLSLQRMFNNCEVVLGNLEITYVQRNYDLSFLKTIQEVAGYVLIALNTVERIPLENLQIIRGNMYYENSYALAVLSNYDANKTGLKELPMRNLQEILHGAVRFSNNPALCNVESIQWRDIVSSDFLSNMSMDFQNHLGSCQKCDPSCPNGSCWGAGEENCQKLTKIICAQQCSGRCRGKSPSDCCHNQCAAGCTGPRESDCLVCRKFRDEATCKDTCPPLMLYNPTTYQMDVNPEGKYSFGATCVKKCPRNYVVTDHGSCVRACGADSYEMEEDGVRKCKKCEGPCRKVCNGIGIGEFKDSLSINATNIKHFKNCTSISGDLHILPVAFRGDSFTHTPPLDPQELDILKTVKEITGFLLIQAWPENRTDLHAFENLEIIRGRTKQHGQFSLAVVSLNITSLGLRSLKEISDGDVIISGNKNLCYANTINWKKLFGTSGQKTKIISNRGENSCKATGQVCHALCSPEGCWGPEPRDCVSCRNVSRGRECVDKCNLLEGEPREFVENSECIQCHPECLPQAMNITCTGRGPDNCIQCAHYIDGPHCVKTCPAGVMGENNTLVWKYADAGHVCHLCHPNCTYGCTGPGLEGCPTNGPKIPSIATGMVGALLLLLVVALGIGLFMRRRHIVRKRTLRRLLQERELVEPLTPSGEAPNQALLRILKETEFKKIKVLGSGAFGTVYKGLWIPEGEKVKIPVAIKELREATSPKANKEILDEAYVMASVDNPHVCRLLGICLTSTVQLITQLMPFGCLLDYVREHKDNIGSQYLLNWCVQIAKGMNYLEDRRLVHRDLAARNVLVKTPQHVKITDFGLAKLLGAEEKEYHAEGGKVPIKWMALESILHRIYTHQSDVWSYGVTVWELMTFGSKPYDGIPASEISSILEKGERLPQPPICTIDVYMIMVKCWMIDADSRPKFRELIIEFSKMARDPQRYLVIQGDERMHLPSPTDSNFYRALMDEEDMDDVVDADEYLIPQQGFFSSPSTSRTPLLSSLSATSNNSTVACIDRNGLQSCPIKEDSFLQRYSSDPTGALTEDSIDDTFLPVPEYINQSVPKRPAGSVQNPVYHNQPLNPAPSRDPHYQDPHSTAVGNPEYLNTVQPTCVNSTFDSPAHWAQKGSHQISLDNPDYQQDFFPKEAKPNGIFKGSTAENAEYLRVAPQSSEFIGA

Stability of suspension [1]: short term stability
Vitamin K3 in central retina and cornea samples ([3]; Group 5): no quantitative results
Vitamin K3 Cornea concentration ([3]; Group 5: Compound-I 4 mg/mL suspension with Vitamin K3 1 μM, QD for 4 days, 1 hr post dose on Day 5, LLOQ = 0.145 μM): <LLOQ
Vitamin K3 Central Retina concentration ([3]; Group 5: Compound-I 4 mg/mL suspension with Vitamin K3 1 μM, QD for 4 days, 1 hr post dose on Day 5, LLOQ = 0.581 μM): <LLOQ
Vitamin K3 concentration in Cornea [5, 6]: <LLOQ
Vitamin K3 concentration in Central Choroid [5, 6]: <LLOQ
Vitamin K3 concentration in Plasma ([5]; Group 8: Formula II 4 mg/mL, HPMC, average n = 3, LLOQ = 0.291 μM): <LLOQ
Vitamin K3 concentration in Cornea [5, 7]: <LLOQ
Vitamin K3 concentration in Central Retina ([5]; Group 9: Formula II 4 mg/mL, Pluronic, LLOQ = 11.6 μM): <LLOQ
Vitamin K3 concentration in Central Choroid [5, 7]: <LLOQ
SMILES: CC1=CC(=O)c2ccccc2C1=O [menadione]
Basal EGFR phosphorylation and EGFR dephosphorylation (EGFR [2]; 0.3 or 3.0 μM, 4 hours, 50 ng/ml EGF 0-3 hours): did not change
Kinetics of EGFR degradation (EGFR [2]; menadione): slowed the kinetics of EGFR degradation
Effect on Formula I or II compound-mediated EGFR inhibition (EGFR [4]): overcome
Effect on Formula I or II compound-mediated EGFR inhibition (EGFR [4]; listed as vitamin K3): most effectively attenuated
Effect on inhibition of in vitro wound healing by a compound of Formula I or II (hTCEpi cells): reversed
Effect on corneal epithelial wound healing after pre-treatment with a compound of Formula I or II (10 μM) (corneas of C57/Bl mice): reversed the effects

Reference: US10183014B2, “Ocular formulations for drug-delivery and protection of the anterior segment of the eye” (PanOptica, Inc., priority 2014, dated 2019)
